SMILES strings stand for the structures.

The values below come from a melting point compilation (Tetko et al.; mined from patent text by program, amines drawn as free bases though some values may be those of a salt).

With `Cc1nc(-c2cnc3[nH]cc(C(=O)N[C@@H](C(=O)N4CC(C#N)C4)C(C)(C)C)c3n2)cn1-c1cccc(F)c1`, the melting point (commonly the temperature, or range, at which the solid turns liquid) fell in the range of 171 to 176 °C.

In turn, `C=CCc1c(SC(C)=O)[nH]c(-c2ccc(Cl)cc2)c1-c1ccc(Cl)cc1` registered a melting point of 131 to 132 °C.

`Cn1nc(CO)nc1NCC(O)CCOc1cccc(CN2CCCCC2)c1` (stereo not given) showed a melting point of 148 °C.

On to `CC(C)(C)C(=O)Nc1ccc2oc3c(c2c1)CCCCCC3`, for which the melting point fell in the range of 189 to 190 °C.

Turning to `O=C(/C=C/C=C(c1cccc(F)c1)c1cccc(F)c1)Oc1ccc([N+](=O)[O-])cc1`, the melting point was found to be 130 °C.

The molecule `Cc1ccn(-c2ccc(Oc3ccc(F)cc3)cc2)n1` registered a melting point of 80 to 81 °C.

Consider `CN(CCOCC(=O)OC(C)(C)C)C(=O)c1c(-c2ccc(C(C)(C)C)cc2)n(C)n(-c2ccc(C#N)cc2)c1=O`, for which the melting point was 218 to 222 °C.

For the molecule `CC(C)(C)c1ccc(C2=NC[C@@H](O)[C@H](c3ccccc3)O2)cc1` (racemic), the melting point was 50 °C.

Molecule `CC1(C)OC(c2ccc(S(C)(=O)=O)cc2)=C(Br)C1=O` gave a melting point of 196 °C.

In the case of `CSC(c1ccccc1)S(=O)c1ccccc1` (stereo not given), the melting point lay in the range of 104 to 105 °C.

Molecule `CNC(=O)NCCSCc1[nH]cnc1C` showed a melting point of 158 to 159 °C.

The molecule `CC(N)=CC(=O)CS(=O)(=O)N(C)C` returned a melting point of 137 to 140 °C.

Molecule `Cc1c(-c2ccc(O)cc2)n(Cc2ccc(C#CCN3CCCC3)cc2)c2ccc(O)cc12` yielded a melting point of 174 to 176 °C.

`CC(C)(C)NNC(=O)c1ccccc1` came in with a melting point of 94 to 95 °C.

Molecule `CN(C(=O)CN1C(=O)C(NC(=O)Nc2cccc(C#N)c2)N=C(CN2CCCCC2)c2ccccc21)c1ccccc1` (stereo not given) came in with a melting point of 145 to 150 °C.

In the case of `CC1=Cc2ccc(Cl)cc2C(c2ccc([N+](=O)[O-])c(C)c2)=NN1C(=O)NC1CC1`, the melting point lay in the range of 221 to 223 °C.

`CN(C)c1ccncc1CCCOc1ccc(OCCCC(=O)O)cc1` gave a melting point of 106 to 108 °C.

For the molecule `CN(C)Cc1c[nH]c2ccc(CCS(=O)(=O)N(C)C)cc12`, the melting point was in the range of 156 to 159 °C.

`CCc1nc2c(N)nc3ccc(O)cc3c2n1CCCCNS(C)(=O)=O` displayed a melting point of 128 to 130 °C.

`O=C(O)Cc1ccc2cc(OCc3ccc4ccccc4n3)ccc2c1` displayed a melting point of 199 to 202 °C.

`Cc1cc(C2(O)C(=O)N(Cc3ccccc3)c3ccccc32)cc(C)c1O[Si](C)(C)C(C)(C)C` (stereo not given) displayed a melting point of 147 °C.

In turn, `O=C(C=Cc1ccc([N+](=O)[O-])cc1)N1CCc2c([nH]c3ccccc23)C1c1ccc2c(c1)OCO2` (stereo not given) displayed a melting point of 158 °C.

In turn, `COc1cc(C(=O)Nc2c(C)cccc2C)nn1C` had a melting point of 144 °C.

`O=C1Cc2ccccc2C(c2ccccc2F)N1` (stereo not given) registered a melting point of 167 to 169 °C.

Molecule `CC(=O)N1CCN=C1Nc1c(Br)cccc1Br` had a melting point of 182 to 185 °C.

For `Cc1ccc(Nc2ccc(OC(F)(F)F)cc2)cc1`, the melting point is 43.7 °C.

With `c1cncc(Cn2c(-c3ccc4c(c3)OCO4)nc3ccccc32)c1`, the melting point was 152 to 153 °C.

Regarding `COc1cc2c(cc1C(F)(F)F)N(C(=O)Nc1cccc(-c3cnccc3C)c1)CC2`, the melting point lay within 178 to 180 °C.

`O=C(O)CCCc1cc2cc(Cl)ccc2n1S(=O)(=O)c1ccc2c(c1)CCO2` displayed a melting point of 174 to 179 °C.

Molecule `COc1ccc(CNc2ccc(C(=O)Nc3cccc4cc(C(=O)Nc5cc(C(C)(C)C)cc(NS(C)(=O)=O)c5OC)sc34)cn2)cc1` displayed a melting point of 137 to 139 °C.

In turn, `O=c1[nH]c2ccc(F)cc2n2ccnc12` had a melting point above 300 °C.

With `N#Cc1cnc2cc(-c3ccc(CCN4CCOCC4)s3)ccc2c1Nc1ccc(Cl)cc1Cl`, the melting point was 168 to 169 °C.

`Cc1cc(SC2=C(O)C[C@@](CCc3ccccc3)(C(C)C)OC2=O)c(C(C)C)c2sc(N)nc12`: the melting point was 160 to 162 °C.

With `Cc1c(NC(=O)c2ccc(OCc3ccccc3)cc2F)ccc2cc(CN3CCCCC3)cnc12`, the melting point was 180 to 181 °C.

With `C#CCN1Cc2cccc3cccc(c23)C1=O`, the melting point lay within 139 to 140 °C.

Consider `O=C(O)CCCCCn1c(=O)c2ccccc2n(CCCCN2CCC(OC(c3ccccc3)c3ccccc3)CC2)c1=O`, for which the melting point was in the range of 155 to 157 °C.

In the case of `COCCCn1c(O)nc2ccc(C)cc21`, the melting point was 118 to 120 °C.

`CC(=O)c1cc(Br)c(OCCCN2CCC(c3noc4cc(F)ccc34)CC2)c(Br)c1` yielded a melting point of 102 to 103 °C.

For `CCCCCCNC(=O)C=C(C)C=CC=C(C)C=Cc1c(C)cc(OC)c(C)c1C`, the melting point fell in the range of 157 to 158 °C.

In turn, `COC(=O)Cc1ccc(C2=CC(=O)c3ccccc3C2=O)n1C` registered a melting point of 89 to 90 °C.

On to `Cc1cccc2nc3c(c(C)nn3-c3ccccn3)c(Cl)c12`, for which the melting point fell in the range of 167 to 169 °C.

For the molecule `O=C(CP(=O)(O)O)NC12CC3CC(CC(C3)C1)C2`, the melting point lay in the range of 190 to 194 °C.

In turn, `COc1cc(C(=O)c2ccccc2)cc(C#N)c1OC` had a melting point of 98 to 100 °C.

For the molecule `CCCn1cnc(C(N)=O)c1NC(=O)c1ccccc1OCC`, the melting point was 182 to 184 °C.

On to `Cn1ncnc1COc1nn2c(-c3ccc(F)cc3F)nncc2c1C(C)(C)C`, for which the melting point is 118 °C.

The molecule `COC(=O)CCC(=NOCc1ccc(OCc2nc(-c3ccccc3)oc2C)c(OC)c1)c1ccccc1` displayed a melting point of 112 to 114 °C.

On to `COc1cc2c3c(c1O)-c1ccc(Cl)cc1CC3N(C)CC2` (stereo not given), for which the melting point lay within 155 to 157 °C.

With `Cc1ccccc1C1(C#N)C2CC3CC(C2)CC1C3` (stereo not given), the melting point fell in the range of 80 to 81 °C.

The molecule `CCCCCc1csc2cc(OC)ccc12` yielded a melting point of 43 to 45 °C.

Turning to `CC(C#N)c1ccc(Cc2ccccc2CC#N)cc1` (stereo not given), the melting point was 61 to 64 °C.

In turn, `CCC(C)(CC)NC(=NC#N)Nc1cccnc1` had a melting point of 184 to 186 °C.

Molecule `OCC(O)Cc1cc(Cl)c2ccccc2c1OCc1ccccc1` (stereo not given) returned a melting point of 69 to 71 °C.

Take `COc1ccc(CCl)cc1OC`: the melting point lay within 50 to 51 °C.

For `CC1CC(=O)c2c(C(=O)Nc3ccc4c(c3)OC(C)(C)O4)c[nH]c2C1` (stereo not given), the melting point is 297 to 299 °C.

The molecule `O=C(c1ccccc1)N1CCc2[nH]c3cccc(-c4ccccc4)c3c2CC1` gave a melting point of 223 to 226 °C.

On to `CCCCc1ncc[nH]1`, for which the melting point lay in the range of 35 to 37 °C.

As for `CN1C(=O)C(C)(C)c2ccc(C(=O)Nc3ccccc3)cc21`, the melting point lay within 184 to 186 °C.

`COc1ccc2c(CC3=C(CC(=O)O)CCCC3=O)cccc2c1C(F)(F)F` returned a melting point of 69 to 71 °C.

On to `c1ccc(C(OC2CCN(CCCCCNc3ccc4ncnn4n3)CC2)c2ccccc2)cc1`, for which the melting point lay within 96 to 98 °C.

Take `Oc1nc2cc(Cl)c3nc(C(F)(F)F)[nH]c3c2nc1O`: the melting point is above 300 °C.

Regarding `Nc1nc(N)nc(Cc2cc3ccccc3s2)n1`, the melting point was 216 to 218 °C.

`O=C(CCc1ccccc1)N[C@H](Cc1ccc(C(F)(F)F)c(F)c1)[C@@H](O)c1ccc(F)cc1` (racemic) registered a melting point of 126 to 127 °C.

With `CN1C(=O)CC[C@]2(C)c3ccc(C(=O)c4ccccc4)cc3CC[C@@H]12`, the melting point stood at 116 °C.

Molecule `COCn1ccnc1C(O)(c1ccccc1)c1ccc(C(F)(F)F)cc1` (stereo not given) gave a melting point of 158 to 159 °C.

For the molecule `Cn1c(=O)c(Oc2ccccc2F)cc2cnc(N)nc21`, the melting point was in the range of 241 to 243 °C.

Molecule `FC(F)(F)Oc1ccc(-n2cnc(-c3ccc(CBr)cc3)n2)cc1` registered a melting point of 124 to 126 °C.

The molecule `Cc1cc(-n2cnn(Cc3ccc(S(C)(=O)=O)cc3)c2=O)sc1C(=O)NCc1cccnc1` came in with a melting point of 208 to 210 °C.

Molecule `c1ccc(CN2CCC(COc3ccccc3)CC2)cc1` yielded a melting point of 56 to 57 °C.

As for `CC(C)n1cc(C(=O)Nc2nccs2)c2ccc(S(C)(=O)=O)cc21`, the melting point fell in the range of 247 to 249 °C.

Consider `CN(C)C(C)(C)c1ccc(-c2nc(Nc3ccc(F)cc3)ncc2C#N)cc1`, for which the melting point was found to be 179 °C.

`N#Cc1ccccc1N1CCN(CCCCCC(=O)O)CC1`: the melting point came to 120 °C.

As for `CCOC(=O)CCc1cccc(N(C)C)c1`, the melting point lay within 94 to 98 °C.

As to `COc1cc(-c2nc(NC(=O)c3cc4cc(C)ccc4n3CC(=O)O)sc2CCC2CCCCC2)c(OC)cc1Cl`, the melting point is 204 to 208 °C.

With `COC(=O)NC(=NS(=O)(=O)NC1CCCCC1)OC`, the melting point lay in the range of 84 to 86 °C.

As to `CNC(=O)NS(=O)(=O)c1ccccc1C=CC(F)(F)F`, the melting point fell in the range of 190 to 192 °C.

As for `C=C(CCC(=O)O)CC(N)C(=O)O` (stereo not given), the melting point stood at 68 °C.

In turn, `N#CC(CCOc1ccc(Br)cc1)c1ccc(Cl)cc1Cl` (stereo not given) had a melting point of 73.9 °C.

Molecule `N#Cc1c(C(F)(F)F)cc(-c2ccc(C(F)(F)F)cc2)[nH]c1=O` showed a melting point of 197 °C.

On to `COc1cc(N)c(Cl)cc1C(=O)NCCC1CN(Cc2ccccc2)CCO1` (stereo not given), for which the melting point lay within 68 to 72 °C.

In the case of `Cc1ccc2c(c1)c(=O)oc(=O)n2Cc1ccc(F)cc1`, the melting point was found to be 153 °C.

Regarding `CCOC(=O)c1cnc(NC(=O)C(Cc2ccc(F)cc2)c2ccc(S(C)(=O)=O)cc2)cn1` (stereo not given), the melting point lay within 99 to 100 °C.

`Clc1cnc2cnc(Cl)nc2c1` registered a melting point of 177 to 178 °C.

Turning to `COc1ccn(-c2nc(C)c(C(=O)NCc3ccccc3)s2)c(=O)c1`, the melting point lay in the range of 205 to 208 °C.

Take `Nc1nc(-c2cc(Cl)nc(Cl)c2)cs1`: the melting point lay in the range of 239 to 247 °C.

As for `CCOC(=O)C1C2C(=O)N(Cc3ccccc3)C(=O)C12` (stereo not given), the melting point is 190 °C.

In turn, `COc1cc2c3c(c(=O)n(C)c2cc1OC)CNCC3` had a melting point of 178 to 179 °C.

Turning to `Cc1noc(NC(=O)N2CCN(c3nc(-c4cccc(Cl)c4)cs3)CC2)c1C`, the melting point fell in the range of 201 to 202 °C.

With `CN1CCN(c2cccc3ccc(NC(N)=S)cc23)CC1`, the melting point lay in the range of 194 to 195 °C.

`NS(=O)(=O)c1cccnc1OC1CCCC1`: the melting point was 134 to 135 °C.

On to `O=C1C2CCCC2Nc2ccccc2N1Cc1ccccc1` (stereo not given), for which the melting point lay within 172 to 173 °C.
